Laboratory results taken from patent US7091197B2, “Beta-lactamase inhibitor prodrug” (Pfizer Inc., priority 2002, dated 2006).
Converted amounts (≈) assume the structure as drawn. Marks after values point to notes of the source that are not given here.

Legend:
[1] = tested on: Klebsiella pneumonaie (53A0031); test: Murine systemic infection model, K. pneumoniae; assay type: in vivo; conditions: 96 h, oral, single agent, K. pneumoniae 53A0031, survival day 4
[2] = tested on: Streptococcus pneumoniae (02J1016); test: Mouse pneumonia model, S. pneumoniae 02J1016; assay type: in vivo; conditions: 240 h, oral, single agent, survival day 10
[3] = tested on: Eschericia coli (51A0257); test: Murine systemic infection model, E. coli; assay type: in vivo; conditions: Escherichia coli, 96 h, oral, single agent, E. coli 51A0257, survival day 4
[4] = tested on: Haemophilus influenzae (54A1218); test: Gerbil otitis media model, H. influenzae; assay type: in vivo
[5] = tested on: 21 penicillin-resistant strains of S. pneumoniae; test: microbe, parasite or virus in culture; assay type: cell-based; conditions: Streptococcus pneumoniae; some S. pneumoniae clinical isolates; read-out: MICs of strains with high-level resistance
[6] = tested on: Haemophilus influenzae (54A1218); test: Murine systemic infection model, H. influenzae; assay type: in vivo; conditions: 96 h, oral, single agent, H. influenzae 54A1218, survival day 4
[7] = tested on: Staphylococcus aureus (01A0400); test: Murine systemic infection model, S. aureus; assay type: in vivo; conditions: 96 h, oral, single agent, S. aureus 01A0400, survival day 4
[8] = tested on: Streptococcus pneumoniae (02J1095); test: Mouse pneumonia model, S. pneumoniae 02J1095; assay type: in vivo; conditions: 240 h, oral, single agent, survival day 10
[9] = tested on: Moraxella catarrhalis (87A1115); test: Murine systemic infection model, M. catarrhalis; assay type: in vivo; conditions: 96 h, oral, single agent, M. catarrhalis 87A1115, survival day 4
[10] = in vivo, cited from earlier work
[11] = target: T1, BRO-2 β-lactamase (M. catarrhalis 87A1178 ATCC43617) (Moraxella catarrhalis, UniProt Q59514); test: β-lactamase inhibition in cell extracts, BRO-2; assay type: biochemical
T1 sequence (Q59514 1-313 D293G): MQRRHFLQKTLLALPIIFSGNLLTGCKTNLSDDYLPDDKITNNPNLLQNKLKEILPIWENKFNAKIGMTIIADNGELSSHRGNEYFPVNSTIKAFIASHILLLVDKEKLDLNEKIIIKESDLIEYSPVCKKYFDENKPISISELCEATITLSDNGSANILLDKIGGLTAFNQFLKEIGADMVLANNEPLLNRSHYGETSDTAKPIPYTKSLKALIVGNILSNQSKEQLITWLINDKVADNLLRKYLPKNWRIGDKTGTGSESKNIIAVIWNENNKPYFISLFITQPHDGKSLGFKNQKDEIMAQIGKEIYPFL

[12] = Chemical (pH) stability in solution; assay type: physicochemical
Procedure: Buffers were appropriately formulated to achieve the desired pH of each incubation. […] The temperature of the incubation was regulated with a 96-well heat block. Incubations were performed at 25° C. and 37° C. […] An apparent first-order half-life could then be estimated as ln 2/kd.

[13] = clavulanate in the Augmentin suspension; room temperature, 10 days; cited from earlier work
BRO-1 and BRO-2 enzymes = BRO-1 and BRO-2 enzymes (Moraxella catarrhalis, UniProt Q59514); test: β-lactamases from 30 recent clinical isolates of M. catarrhalis; assay type: biochemical; conditions: BRO-1 and BRO-2 enzymes from 30 recent clinical isolates of M. catarrhalis
[14] = Prodrug 3 suspension stability (0.5% methylcellulose); assay type: physicochemical; conditions: for Potency (percent) in suspension: 1.51 mg/ml, un-buffered 0.5% methylcellulose, 25° C.
[15] = Portal vein studies in rats; assay type: in vivo; conditions: portal vein cannulated rats; oral 100 mg/kg; 5, 15 and 30 minutes post dose; not detected, assay LLOQ
Procedure: Portal Vein Studies in Rats: Systemic exposure of Prodrug 3 was also assessed in portal vein cannulated rats following oral administration of the prodrug at a dose of 100 mg/kg. Whole blood aliquots were stabilized in ice cold acid immediately upon sampling at 5, 15 and 30 minutes post dose. No levels of Prodrug 3 were detected in any of the samples (assay LLOQ of 100 ng/ml).

in vitro = conditions: plasma
Procedure: The incubation consisted of 990 μl of plasma preincubated for 5 minutes at 37° C. in a 96-well heat block. The incubation was initiated with the addition of 10 μl of a 10 mM stock of compound in 100% methanol. Serial aliquots (100 μl) were removed and transferred to 200 μl of 75/25 acetonitrile/3% perchloric acid at 0, 1, 2, 5, 10, 20, 30, and 60 minutes. The samples were centrifuged, the supernatants transferred to injection vials, and 20 μl was injected onto the HPLC in-line with a LC/MS single quadropole mass spectrometer. The LC/MS system was run in the negative ion mode. […] The peak response at each time point was expressed as a percentage of that obtained at time=0. A degradation rate constant (kd) was obtained by regression of these percentages from time=0 minutes to […]. An apparent first-order half-life was then be estimated as ln 2/kd. These determinations were completed in duplicate and the average was reported as shown below.

[16] = target: E. coli TEM-1 beta-lactamase (Escherichia coli, UniProt P62593); test: Beta-lactamase inhibitory activity at intestinal pH values; assay type: biochemical
[17] = Hepatic extraction, human hepatocytes; assay type: in vitro ADME
Excerpt: (§1) L. and A. Barve, 1998. Linear correlation of the fraction of oral dose absorbed of 64 drugs between humans and rats. Pharm. Res. 15:1792–1795.). Based upon this correlation, the rat was used to predict human absorption. […] Thus, oral bioavailability assessments in rats should correlate well with the fraction absorbed in humans.

[18] = Hepatic extraction, rat hepatocytes; assay type: in vitro ADME
Excerpt: as §1

[19] = buffer, pH 1.2, Half-life (Hours), solution stability
[20] = buffer, pH 2.5, Half-life (Hours), solution stability
[21] = buffer, pH 4, Half-life (Hours), solution stability
[22] = buffer, pH 5, Half-life (Hours), solution stability

E. coli TEM-1 beta-lactamase, sequence (P62593 24-286 limits assumed): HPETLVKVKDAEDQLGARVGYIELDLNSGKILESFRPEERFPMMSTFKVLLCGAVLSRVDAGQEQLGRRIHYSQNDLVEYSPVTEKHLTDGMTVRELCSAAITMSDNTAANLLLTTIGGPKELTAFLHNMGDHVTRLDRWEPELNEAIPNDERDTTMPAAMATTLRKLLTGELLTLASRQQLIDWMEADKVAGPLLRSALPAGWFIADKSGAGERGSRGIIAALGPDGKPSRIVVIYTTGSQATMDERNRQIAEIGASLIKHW
BRO-1 and BRO-2 enzymes, sequence (Q59514 whole entry): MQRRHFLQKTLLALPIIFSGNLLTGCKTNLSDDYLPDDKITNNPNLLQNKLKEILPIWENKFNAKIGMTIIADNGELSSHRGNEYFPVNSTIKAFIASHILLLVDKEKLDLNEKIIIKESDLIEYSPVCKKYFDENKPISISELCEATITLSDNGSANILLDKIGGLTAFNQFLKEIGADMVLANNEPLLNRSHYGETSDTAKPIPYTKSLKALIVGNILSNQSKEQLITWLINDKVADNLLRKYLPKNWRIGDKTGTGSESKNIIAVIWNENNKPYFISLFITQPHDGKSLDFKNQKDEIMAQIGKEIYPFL

`CC1(C)S[C@@H]2[C@H](NC(=O)[C@H](N)c3ccc(O)cc3)C(=O)N2[C@H]1C(=O)O` [Amoxicillin, amoxicillin] gave an ED50 [1] of over 200 mg/kg, an ED50 [2] of 3.3 mg/kg and an ED50 [3] of over 200 mg/kg. For the same molecule, the “outcome as a single agent” value ([4]; gerbil otitis media model) was “failed”, the MIC [5] was 4 to 8 µg/mL (≈ 10.9 to 21.9 µM) and the ED50 [6] was over 100 mg/kg. The ED50 [7] was over 100 mg/kg, the ED50 [8] was 25 mg/kg and the ED50 [9] was over 100 mg/kg.

In the case of `O=C(O)[C@H]1/C(=C/CO)O[C@@H]2CC(=O)N21` [Clavulanate, lithium clavulanate], the “fraction that remains unabsorbed from the intestine” value ([10]; human) is given as 40%, the “fraction absorbed into circulation” value [10] is given as 60% and the IC50 [11] is given as 110 nM. For the same molecule, the “Half-life (Hours), solution stability” value ([12]; buffer, 100 μM, pH 2.5) was 1.2 h, the “Half-life (Hours), solution stability” value ([12]; buffer, 100 μM, pH 4) was over 24 h and the “Half-life (Hours), solution stability” value ([12]; buffer, 100 μM, pH 5) was over 24 h. The “Half-life (Hours), solution stability” value ([12]; buffer, 100 μM, pH 6.5) was over 24 h, the “Half-life (Hours), solution stability” value ([12]; buffer, 100 μM, pH 7.4) was over 24 h and the half-life at 100 μM [12, 19] was 0.6 h. It also gave a half-life at 100 μM [12, 20] of 0.9 h, a half-life at 100 μM [12, 21] of over 24 h and a half-life at 100 μM [12, 22] of over 24 h. For the same molecule, the half-life at 100 μM ([12]; buffer, pH 6.5, Half-life (Hours), solution stability) was over 24 h, the half-life at 100 μM ([12]; buffer, pH 7.4, Half-life (Hours), solution stability) was over 24 h and the “potency retained in suspension” value [13] was 40%.

In the case of `CC1(C)[C@H](C(=O)[O-])N2C(=O)[C@@H](CO)[C@H]2S1(=O)=O.[Na+]` [Na-HMPAS, 4-Thia-1-azabicyclo[3,2,0]heptane-2-carboxylic acid, 6-(hydroxymethyl)-3,3-dimethyl-7-oxo-, 4,4-dioxide, monosodium salt, (2S, 5R, 6R)], the IC50 (BRO-1 and BRO-2 enzymes) is reported as 190 nM, the half-life at 100 μM ([12]; pH buffer, pH 1.2, pH 1.2, 25° C., 100 μM, read-out: Half-life (Hours), solution stability) is reported as over 24 h and the half-life at 100 μM ([12]; pH buffer, pH 1.2, pH 1.2, 37° C., 100 μM, read-out: Half-life (Hours), solution stability) is reported as over 24 h. It also gave a half-life at 100 μM ([12]; pH buffer, pH 2.5, pH 2.5, 25° C., 100 μM, read-out: Half-life (Hours), solution stability) of over 24 h, a half-life at 100 μM ([12]; pH buffer, pH 2.5, pH 2.5, 37° C., 100 μM, read-out: Half-life (Hours), solution stability) of over 24 h and a half-life at 100 μM ([12]; pH buffer, pH 4, pH 4.0, 25° C., 100 μM, read-out: Half-life (Hours), solution stability) of over 24 h. The half-life at 100 μM ([12]; pH buffer, pH 4, pH 4.0, 37° C., 100 μM, read-out: Half-life (Hours), solution stability) was over 24 h, the half-life at 100 μM ([12]; pH buffer, pH 5, pH 5.0, 25° C., 100 μM, read-out: Half-life (Hours), solution stability) was over 24 h and the half-life at 100 μM ([12]; pH buffer, pH 5, pH 5.0, 37° C., 100 μM, read-out: Half-life (Hours), solution stability) was over 24 h. The half-life at 100 μM ([12]; pH buffer, pH 6.5, pH 6.5, 25° C., 100 μM, read-out: Half-life (Hours), solution stability) was over 24 h, the half-life at 100 μM ([12]; pH buffer, pH 6.5, pH 6.5, 37° C., 100 μM, read-out: Half-life (Hours), solution stability) was over 24 h and the half-life at 100 μM ([12]; pH buffer, pH 7.4, pH 7.4, 25° C., 100 μM, read-out: Half-life (Hours), solution stability) was over 24 h. For the same molecule, the half-life at 100 μM ([12]; pH buffer, pH 7.4, pH 7.4, 37° C., 100 μM, read-out: Half-life (Hours), solution stability) was over 24 h.

With `C[C@H](OC(=O)c1ccccc1)OC(=O)[C@@H]1N2C(=O)[C@@H](CO)[C@H]2S(=O)(=O)C1(C)C` [Prodrug 3, 4-Thia-1-azabicyclo[3.2.0]heptane-2-carboxylic acid, 6-(hydroxymethyl)-3,3-dimethyl-7-oxo-, (1R)-1-(benzoyloxy)ethyl ester, 4,4-dioxide (2S, 5R, 6R)] the ED50 [1] was over 25 mg/kg, the ED50 [2] was over 25 mg/kg and the “Potency (percent) in suspension” value ([14]; Day 3) was 103%. For the same molecule, the “Potency (percent) in suspension” value ([14]; Day 5) was 98%, the “Potency (percent) in suspension” value ([14]; Day 7) was 104% and the “Potency (percent) in suspension” value ([14]; Day 10, pH ~6.8 initially, 4.7 by day 10) was 91*** percent. For the same molecule, the “potency maintained in suspension” value ([14]; storage at room temperature for 10 days) was “greater than 90%”, the ED50 [3] was over 100 mg/kg and the ED50 ([4]; Haemophilus influenzae, 96 h, oral, single agent, gerbil otitis media, H. influenzae 54A1218, bacterial clearance day 4) was over 25 mg/kg. For the same molecule, the “levels of Prodrug 3 in portal vein blood” value [15] was under 100 ng/mL, the half-life at 100 μM (in vitro; dog) was 2.8 min and the half-life at 100 μM (in vitro; human) was under 2 min. It also gave a half-life at 100 μM (in vitro; monkey) of 3.6 min, a half-life at 100 μM (in vitro; mouse) of 2.8 min and a half-life at 100 μM (in vitro; rat) of under 2 min. For the same molecule, the ED50 [6] was over 25 mg/kg, the ED50 [7] was over 12.5 mg/kg and the “Half-life (Hours), solution stability” value ([12]; buffer, 100 μM, pH 1.2) was over 24 h. For the same molecule, the “Half-life (Hours), solution stability” value ([12]; buffer, 100 μM, pH 2.5) was over 24 h, the “Half-life (Hours), solution stability” value ([12]; buffer, 100 μM, pH 4) was over 24 h and the “Half-life (Hours), solution stability” value ([12]; buffer, 100 μM, pH 5) was over 24 h. It also gave a half-life at 100 μM [12, 19] of over 24 h, a half-life at 100 μM [12, 20] of over 24 h and a half-life at 100 μM [12, 21] of over 24 h. It also gave a half-life at 100 μM [12, 22] of over 24 h, a half-life at 100 μM ([12]; buffer, pH 7, half-life of conversion of the prodrug to active inhibitor) of 0.55 h and a half-life at 100 μM ([12]; solution half-life) of 0.5 h. It also gave an IC50 ([16]; pH 6.0) of over 100000 nM, an IC50 ([16]; pH 7.0) of 2200 nM and an ED50 [8] of over 25 mg/kg. For the same molecule, the ED50 [9] was over 100 mg/kg.

In the case of `CC1(C)[C@H](C(=O)O)N2C(=O)[C@@H](CO)[C@H]2S1(=O)=O` [Prodrug 6-β-HMPAS, 6-β-hydroxymethylpenicillanic acid sulfone], the hepatic extraction [17] is reported as “minimal hepatic extraction”, the hepatic extraction [18] is reported as “minimal hepatic extraction” and the IC50 [11] is reported as 320 nM.
